In patent US9493468B2, “Antifungal 5,6-dihydro-4H-pyrrolo[1,2-a][1,4]benzo-diazepines and 6H-pyrrolo[1,2-a][1,4]benzodiazepines substituted with heterocyclic derivatives” (Janssen Pharmaceutica NV, priority 2011, dated 2016):

What was measured:
Format in all cases: cell-based
Microsporum canis = assay: Antifungal activity in vitro, resazurin growth inhibition: Microsporum canis (B68128)
Outline: (§1)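 Compound dilutions, with 64 μM as the highest in-test level, are spotted onto plates, then an inoculum of 10^3 cfu in RPMI-1640 plus 2% glucose (MOPS, pH 7.0±0.1) is added. Plates are incubated at species-dependent time and temperature, up to a week or more at 27° C. for dermatophytes.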

[1] = system: Trichophyton mentagrophytes; assay: Antifungal activity in vitro, resazurin growth inhibition: Trichophyton mentagrophytes (B70554)
Outline: as §1

Trichophyton rubrum = assay: Antifungal activity in vitro, resazurin growth inhibition: Trichophyton rubrum (B68183)
Outline: as §1

Sporothrix schenkii = assay: Antifungal activity in vitro, resazurin growth inhibition: Sporothrix schenkii (B62482)
Outline: (§2)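 Fungi (10^3 cfu/well) grown in RPMI-1640 with L-glutamine, 2% glucose, MOPS pH 7.0, against 2- or 4-fold compound dilutions up to 64 μM. Dermatophytes incubated one week or more at 27° C. Growth inhibition read fluorimetrically (λex 550, λem 590 nm) after resazurin addition and further incubation.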

Aspergillus fumigatus = assay: Antifungal activity in vitro, resazurin growth inhibition: Aspergillus fumigatus (B42928)
Outline: as §2

Candida parapsilosis = assay: Antifungal activity in vitro, resazurin growth inhibition: Candida parapsilosis (B66126)
Outline: as §2

Cryptococcus neoformans = assay: Antifungal activity in vitro, resazurin growth inhibition: Cryptococcus neoformans (B66663)
Outline: as §2

SMILES	Inf. B: Microsporum canis B68128, pIC50 (Microsporum canis)	Inf. G: Trichophyton mentagrophytes B70554, pIC50 [1]	Inf. C: Trichophyton rubrum B68183, pIC50 (Trichophyton rubrum)	Inf. A: Sporothrix schenkii B62482, pIC50 (Sporothrix schenkii)	Inf. E: Aspergillus fumigatus B42928, pIC50 (Aspergillus fumigatus)	Inf. D: Candida parapsilosis B66126, pIC50 (Candida parapsilosis)	Inf. F: Cryptococcus neoformans B66663, pIC50 (Cryptococcus neoformans)
Cn1nc2ccc(C3=NCc4c(Cl)cc(Cl)cc4-n4cccc43)cc2n1 [Compound 109]	<4.19	4.37	5.70	<4.19	<4.19	<4.19	4.34
Cc1ccc2cc(C3=NCc4c(Cl)cccc4-n4cccc43)ccc2n1 [Compound 112]	5.18	<4.19	6.02	<4.19	<4.19	<4.19	5.07
Cc1ccc2cc(C3=NCc4c(F)cccc4-n4cccc43)ccc2n1 [Compound 113]	<4.19	<4.19	5.86	<4.19	<4.19	<4.19	<4.19
Cc1ccc2cc(C3=NCc4c(F)cc(F)cc4-n4cccc43)ccc2n1 [Compound 114]	<4.19	<4.19	5.75	<4.19	<4.19	<4.19	<4.19
Fc1cc(F)c2oc(C3=NCc4c(Cl)cc(Cl)cc4-n4cccc43)cc2c1 [Compound 129]	<4.19	<4.19	4.96	<4.19	5.61	<4.19	<4.19
Cc1cccc2oc(C3=NCc4c(Cl)cccc4-n4cccc43)cc12 [Compound 132]	4.59	<4.49	5.54	<4.49	<4.49	<4.49	<4.49
Cc1cccc2oc(C3=NCc4ccc(Cl)cc4-n4cccc43)cc12 [Compound 133]	<4.19	<4.19	<4.19	<4.19	<4.19	<4.19	5.83
Cc1ccc2oc(C3=NCc4ccc(Cl)cc4-n4cccc43)cc2c1 [Compound 135]	4.41	<4.19	5.91	<4.19	<4.19	<4.19	4.54
Cc1ccc2oc(C3=NCc4c(Cl)cc(Cl)cc4-n4cccc43)cc2c1 [Compound 136]	4.41	<4.19	5.67	<4.19	<4.19	<4.19	<4.19
Cc1ccc2cc(C3=NCc4c(Cl)cc(Cl)cc4-n4cccc43)oc2c1 [Compound 139]	4.46	<4.19	4.40	<4.19	<4.19	<4.19	<4.19
